These results are taken from US10800791B2, “Triazole ACC inhibitors and uses thereof” (Gilead Apollo, LLC, priority 2015, dated 2020).

One test deals with human (hACC2) (Homo sapiens, UniProt O00763). Kind of test: In vitro ACC inhibition assay (ADP-Glo), hACC2. To be noted: 5 nM ACC2, 20 μM ATP, 20 μM acetyl-CoA. In kind it is biochemical. How it is done: The detailed procedure is as follows. […] 10 μL ADP glo reagent was added. […] 20 μL kinase detection reagent was added.
(In ADP-Glo the light output rises with the ADP produced.)

Another test deals with C. albicans. As to the kind of experiment: Antifungal Activity Assay (broth microtiter MIC), C. albicans. In kind it is cell-based, Candida albicans. To be noted: Candida albicans, ATCC90028, 48 h. The essentials:
(§1)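 Colonies from 24 h Sabouraud dextrose agar plates (35° C) are suspended in RPMI 1640+MOPS and diluted to give 2.5×10^3 CFU/mL in the wells. Plates are set up per CLSI M27-A3. Visual MIC is recorded at 48 h.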

The next test concerns C. krusei. Kind of test: Antifungal Activity Assay (broth microtiter MIC), C. krusei. In kind it is cell-based, Candida krusei. To be noted: Pichia kudriavzevii, ATCC6258, 48 h. An outline of the steps:
as §1

The subject of another test is C. parapsilosis. As to the kind of experiment: Antifungal Activity Assay (broth microtiter MIC), C. parapsilosis. The class given is cell-based, Candida parapsilosis. The note with it: Lodderomyces parapsilosis, ATCC22019, 48 h. An outline of the steps: as §1
Another test has as its target fungal (fACC2) (UniProt Q00955). To be noted: read-out: fACC2 (in vitro ACC2 Inhibition Assay, IC50), ADP-Glo, 5 nM ACC2, 20 μM ATP, 20 μM acetyl-CoA.
Setting [1] is: Table 3a, ATCC 90028, 3 replicates, MIC recorded at 48 h, read-out: MIC, C. albicans ATCC 90028.
Setting [2] is: Table 3b (additional results), ATCC 90028, 3 replicates, MIC recorded at 48 h, read-out: MIC, C. albicans ATCC 90028.
The mark [3] stands for this setting: Table 3a, ATCC 6258, 3 replicates, MIC recorded at 48 h, read-out: MIC, C. krusei ATCC 6258.
Setting [4] is: Table 3b (additional results), ATCC 6258, 3 replicates, MIC recorded at 48 h, read-out: MIC, C. krusei ATCC 6258.
Where [5] appears, read: Table 3a, ATCC 22019, 3 replicates, MIC recorded at 48 h, read-out: MIC, C. parapsilosis ATCC 22019.
[6] abbreviates: Table 3b (additional results), ATCC 22019, 3 replicates, MIC recorded at 48 h, read-out: MIC, C. parapsilosis ATCC 22019.

Molecules are shown by their SMILES. Values after ≈ are worked out from the molar mass of the structure shown. Where two headings read alike, the source gives them in different places. A value given as a limit tells only on which side of the number the result lay.

As a reminder, the IC50 is the concentration at which inhibition is half-maximal. For orientation: MIC means the smallest concentration in the dilution series that meets the test's criterion for growth inhibition.

Chain of fungal (fACC2) (Q00955 whole entry): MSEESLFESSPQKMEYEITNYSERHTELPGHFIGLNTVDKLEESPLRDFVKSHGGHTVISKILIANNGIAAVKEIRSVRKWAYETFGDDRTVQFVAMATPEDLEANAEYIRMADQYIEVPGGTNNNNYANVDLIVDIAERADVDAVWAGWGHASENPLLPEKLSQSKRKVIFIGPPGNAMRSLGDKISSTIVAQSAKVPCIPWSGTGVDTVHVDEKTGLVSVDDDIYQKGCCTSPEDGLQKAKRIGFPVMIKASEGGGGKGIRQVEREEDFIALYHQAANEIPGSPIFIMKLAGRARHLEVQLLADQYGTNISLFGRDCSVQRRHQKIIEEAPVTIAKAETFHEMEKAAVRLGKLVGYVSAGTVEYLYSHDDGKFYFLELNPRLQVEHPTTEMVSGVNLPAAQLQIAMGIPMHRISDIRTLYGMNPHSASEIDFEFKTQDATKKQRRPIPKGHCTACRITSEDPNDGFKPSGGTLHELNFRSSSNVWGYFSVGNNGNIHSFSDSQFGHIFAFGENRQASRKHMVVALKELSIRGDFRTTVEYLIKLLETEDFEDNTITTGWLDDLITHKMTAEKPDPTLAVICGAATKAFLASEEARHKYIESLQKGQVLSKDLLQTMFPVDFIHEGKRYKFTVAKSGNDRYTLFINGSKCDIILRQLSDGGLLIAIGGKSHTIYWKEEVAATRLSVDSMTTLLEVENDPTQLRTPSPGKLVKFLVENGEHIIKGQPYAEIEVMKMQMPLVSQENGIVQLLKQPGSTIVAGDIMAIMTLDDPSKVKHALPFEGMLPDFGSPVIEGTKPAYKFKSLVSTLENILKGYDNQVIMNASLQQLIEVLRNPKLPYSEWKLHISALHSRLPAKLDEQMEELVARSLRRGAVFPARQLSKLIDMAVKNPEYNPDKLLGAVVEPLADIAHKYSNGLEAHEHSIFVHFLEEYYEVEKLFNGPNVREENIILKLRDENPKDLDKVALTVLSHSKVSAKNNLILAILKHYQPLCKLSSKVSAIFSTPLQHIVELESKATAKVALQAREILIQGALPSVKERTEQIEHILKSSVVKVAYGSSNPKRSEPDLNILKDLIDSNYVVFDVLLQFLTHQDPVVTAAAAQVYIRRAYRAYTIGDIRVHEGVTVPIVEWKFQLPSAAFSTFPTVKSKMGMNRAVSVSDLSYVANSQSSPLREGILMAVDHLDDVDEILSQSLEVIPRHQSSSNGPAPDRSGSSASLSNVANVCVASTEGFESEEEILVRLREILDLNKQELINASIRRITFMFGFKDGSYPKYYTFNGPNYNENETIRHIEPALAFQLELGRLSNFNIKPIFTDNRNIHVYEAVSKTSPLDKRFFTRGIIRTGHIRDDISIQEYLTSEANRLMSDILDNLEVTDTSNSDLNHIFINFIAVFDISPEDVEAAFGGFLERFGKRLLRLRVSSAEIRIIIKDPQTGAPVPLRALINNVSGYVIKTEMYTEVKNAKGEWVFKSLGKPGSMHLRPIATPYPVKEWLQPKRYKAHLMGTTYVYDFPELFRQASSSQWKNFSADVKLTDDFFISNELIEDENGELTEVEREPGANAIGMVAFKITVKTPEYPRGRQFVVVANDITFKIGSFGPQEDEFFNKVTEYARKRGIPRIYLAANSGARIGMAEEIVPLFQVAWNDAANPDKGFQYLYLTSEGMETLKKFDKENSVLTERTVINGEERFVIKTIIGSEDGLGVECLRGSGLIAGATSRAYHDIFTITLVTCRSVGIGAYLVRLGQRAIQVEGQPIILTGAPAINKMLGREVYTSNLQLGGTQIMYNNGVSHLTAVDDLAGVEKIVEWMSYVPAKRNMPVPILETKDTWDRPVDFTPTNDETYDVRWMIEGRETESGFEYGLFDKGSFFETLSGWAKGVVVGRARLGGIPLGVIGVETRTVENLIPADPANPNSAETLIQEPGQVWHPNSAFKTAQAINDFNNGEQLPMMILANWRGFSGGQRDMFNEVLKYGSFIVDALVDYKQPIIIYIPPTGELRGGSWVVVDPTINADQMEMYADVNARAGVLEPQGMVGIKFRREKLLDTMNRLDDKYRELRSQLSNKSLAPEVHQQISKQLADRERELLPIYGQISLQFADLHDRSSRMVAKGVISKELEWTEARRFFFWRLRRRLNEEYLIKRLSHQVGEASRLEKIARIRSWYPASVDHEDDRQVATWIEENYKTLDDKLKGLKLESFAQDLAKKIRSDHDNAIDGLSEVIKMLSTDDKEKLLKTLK
Chain of human (hACC2) (O00763 whole entry): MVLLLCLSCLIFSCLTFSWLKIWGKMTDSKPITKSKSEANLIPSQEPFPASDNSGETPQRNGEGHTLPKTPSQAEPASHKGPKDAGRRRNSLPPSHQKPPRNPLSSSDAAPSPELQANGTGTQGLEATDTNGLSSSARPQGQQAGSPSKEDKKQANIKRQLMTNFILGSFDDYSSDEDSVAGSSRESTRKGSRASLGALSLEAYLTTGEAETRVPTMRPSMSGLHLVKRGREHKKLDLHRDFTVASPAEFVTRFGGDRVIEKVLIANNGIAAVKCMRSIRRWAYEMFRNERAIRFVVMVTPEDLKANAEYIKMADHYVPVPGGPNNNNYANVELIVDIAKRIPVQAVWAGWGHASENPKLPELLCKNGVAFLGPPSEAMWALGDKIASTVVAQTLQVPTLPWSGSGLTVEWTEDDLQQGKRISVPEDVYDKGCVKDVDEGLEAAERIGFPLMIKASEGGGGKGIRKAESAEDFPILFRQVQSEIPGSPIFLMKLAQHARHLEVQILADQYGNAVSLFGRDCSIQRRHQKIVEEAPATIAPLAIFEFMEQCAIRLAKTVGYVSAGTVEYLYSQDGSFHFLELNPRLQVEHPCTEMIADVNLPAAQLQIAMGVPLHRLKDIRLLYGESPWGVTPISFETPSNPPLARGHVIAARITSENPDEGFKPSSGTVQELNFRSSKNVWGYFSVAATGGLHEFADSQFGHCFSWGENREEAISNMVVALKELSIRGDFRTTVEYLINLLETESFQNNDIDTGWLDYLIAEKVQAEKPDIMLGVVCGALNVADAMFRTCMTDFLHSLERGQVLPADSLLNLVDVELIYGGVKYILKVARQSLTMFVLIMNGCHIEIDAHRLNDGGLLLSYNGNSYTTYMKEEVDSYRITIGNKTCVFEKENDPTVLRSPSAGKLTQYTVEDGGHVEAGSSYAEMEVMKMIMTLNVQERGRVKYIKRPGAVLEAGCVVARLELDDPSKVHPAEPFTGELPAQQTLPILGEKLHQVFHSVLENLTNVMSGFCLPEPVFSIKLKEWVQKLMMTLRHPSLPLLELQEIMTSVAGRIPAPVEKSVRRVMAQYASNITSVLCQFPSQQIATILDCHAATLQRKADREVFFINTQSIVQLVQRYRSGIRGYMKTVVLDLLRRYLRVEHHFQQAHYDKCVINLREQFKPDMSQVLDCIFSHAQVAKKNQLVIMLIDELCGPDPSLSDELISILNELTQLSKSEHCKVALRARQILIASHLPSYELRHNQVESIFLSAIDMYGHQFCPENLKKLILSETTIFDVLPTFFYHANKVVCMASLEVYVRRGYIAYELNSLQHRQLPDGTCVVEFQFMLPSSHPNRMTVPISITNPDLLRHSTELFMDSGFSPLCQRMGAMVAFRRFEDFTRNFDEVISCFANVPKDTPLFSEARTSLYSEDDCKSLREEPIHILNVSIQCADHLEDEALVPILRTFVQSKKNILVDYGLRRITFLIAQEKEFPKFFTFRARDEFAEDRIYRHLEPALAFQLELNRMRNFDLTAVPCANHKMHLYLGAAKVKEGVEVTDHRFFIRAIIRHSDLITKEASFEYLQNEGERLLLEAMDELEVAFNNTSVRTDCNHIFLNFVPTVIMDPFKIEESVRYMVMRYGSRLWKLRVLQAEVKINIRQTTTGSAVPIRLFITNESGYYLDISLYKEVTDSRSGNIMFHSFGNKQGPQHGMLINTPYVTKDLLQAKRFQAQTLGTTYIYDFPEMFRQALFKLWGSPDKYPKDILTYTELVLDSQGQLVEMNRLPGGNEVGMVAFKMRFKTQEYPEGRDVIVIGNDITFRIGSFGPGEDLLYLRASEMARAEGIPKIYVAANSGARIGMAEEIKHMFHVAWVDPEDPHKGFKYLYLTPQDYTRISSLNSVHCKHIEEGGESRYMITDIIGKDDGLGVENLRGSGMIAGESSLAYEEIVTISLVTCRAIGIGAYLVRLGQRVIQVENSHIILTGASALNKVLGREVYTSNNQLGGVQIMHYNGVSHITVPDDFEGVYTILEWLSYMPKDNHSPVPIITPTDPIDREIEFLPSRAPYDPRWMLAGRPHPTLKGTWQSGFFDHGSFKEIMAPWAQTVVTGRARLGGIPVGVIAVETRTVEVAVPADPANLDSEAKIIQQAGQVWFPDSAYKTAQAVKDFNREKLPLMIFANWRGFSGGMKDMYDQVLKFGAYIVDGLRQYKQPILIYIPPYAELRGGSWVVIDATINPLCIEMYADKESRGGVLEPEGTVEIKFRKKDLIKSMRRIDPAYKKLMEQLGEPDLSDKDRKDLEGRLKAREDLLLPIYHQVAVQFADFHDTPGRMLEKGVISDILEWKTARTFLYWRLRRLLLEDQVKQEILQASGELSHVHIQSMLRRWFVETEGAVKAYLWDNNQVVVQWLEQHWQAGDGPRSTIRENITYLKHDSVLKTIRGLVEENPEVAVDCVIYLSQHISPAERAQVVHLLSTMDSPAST

With `COc1ccc(F)cc1[C@H](Cn1c(=O)n(C(C)(C)C(=O)O)c(=O)c2c(C)c(-n3nccn3)sc21)OCCN1CC(C#N)C1` [Compound I-145], the IC50 lay in the range of 10 to 40 nM against human (hACC2) (Table 2b, additional results); 1 to 5 nM on fungal (fACC2) (Table 2a); 1 to 5 nM on fungal (fACC2) (Table 2b, additional results). Further, the MIC in the test on C. albicans (setting [1]) is 2.1 to 4 µg/mL (≈ 3.43 to 6.54 µM); in the test on C. albicans (setting [2]) it was above 4.01 µg/mL; with C. krusei (setting [3]) it was 2.1 to 4 µg/mL (≈ 3.43 to 6.54 µM); in the test on C. krusei (setting [4]) it was above 4.01 µg/mL; in the test with C. parapsilosis (setting [5]), 2.1 to 4 µg/mL (≈ 3.43 to 6.54 µM); in the test with C. parapsilosis (setting [6]), above 4.01 µg/mL.

`COc1ccc(F)cc1[C@H](Cn1c(=O)n(C(C)(C)C(=O)NC(C)C)c(=O)c2c(C)c(-n3nccn3)sc21)OCCN1CC(C#N)C1` [Compound I-146]: the IC50 against human (hACC2) (Table 2b, additional results) is above 40 nM; at fungal (fACC2) (Table 2a) it was 1 to 5 nM; on fungal (fACC2) (Table 2b, additional results) it was 1 to 5 nM. Besides, the MIC in the test on C. albicans (read-out: MIC, C. albicans ATCC 90028, Table 3a, 3 replicates, MIC recorded at 48 h) lay within 2.1 to 4 µg/mL (≈ 3.22 to 6.13 µM); with C. albicans (read-out: MIC, C. albicans ATCC 90028, Table 3b (additional results), 3 replicates, MIC recorded at 48 h), 1.01 to 2 µg/mL (≈ 1.55 to 3.06 µM); in the test with C. krusei (read-out: MIC, C. krusei ATCC 6258, Table 3a, 3 replicates, MIC recorded at 48 h) it was 2.1 to 4 µg/mL (≈ 3.22 to 6.13 µM); with C. krusei (read-out: MIC, C. krusei ATCC 6258, Table 3b (additional results), 3 replicates, MIC recorded at 48 h), 0.25 to 1 µg/mL (≈ 0.383 to 1.53 µM); with C. parapsilosis (read-out: MIC, C. parapsilosis ATCC 22019, Table 3a, 3 replicates, MIC recorded at 48 h), 2.1 to 4 µg/mL (≈ 3.22 to 6.13 µM); in the test with C. parapsilosis (read-out: MIC, C. parapsilosis ATCC 22019, Table 3b (additional results), 3 replicates, MIC recorded at 48 h), 0.25 to 1 µg/mL (≈ 0.383 to 1.53 µM).

In the case of `COc1ccc(F)cc1[C@H](Cn1c(=O)n(C(C)(C)C(=O)O)c(=O)c2c(C)c(-n3nccn3)sc21)OC[C@@H](C)C#N` [Compound I-147], the IC50 against human (hACC2) (Table 2a) lay within 5 to 10 nM; at human (hACC2) (Table 2b, additional results), 5 to 10 nM; at fungal (fACC2) (Table 2a), 1 to 5 nM; on fungal (fACC2) (Table 2b, additional results) it was 1 to 5 nM. Besides, the MIC with C. albicans (setting [1]) was 2.1 to 4 µg/mL (≈ 3.68 to 7.01 µM); in the test on C. albicans (setting [2]), 2.01 to 4 µg/mL (≈ 3.52 to 7.01 µM); in the test with C. krusei (setting [3]), 2.1 to 4 µg/mL (≈ 3.68 to 7.01 µM); with C. krusei (setting [4]) it was above 4.01 µg/mL; with C. parapsilosis (setting [5]) it was 2.1 to 4 µg/mL (≈ 3.68 to 7.01 µM); in the test with C. parapsilosis (setting [6]), above 4.01 µg/mL.

With `COc1ccc(F)cc1[C@H](Cn1c(=O)n(C(C)(C)C(=O)O)c(=O)c2c(C)c(-n3nccn3)sc21)OC[C@H](C)C#N` [Compound I-148], the IC50 fell in the range of 1 to 5 nM on human (hACC2) (Table 2a); 1 to 5 nM on human (hACC2) (Table 2b, additional results); 1 to 5 nM on fungal (fACC2) (Table 2a); 1 to 5 nM at fungal (fACC2) (Table 2b, additional results). Moreover, the MIC was 2.1 to 4 µg/mL (≈ 3.68 to 7.01 µM) in the test with C. albicans (setting [1]); 2.01 to 4 µg/mL (≈ 3.52 to 7.01 µM) with C. albicans (setting [2]); 2.1 to 4 µg/mL (≈ 3.68 to 7.01 µM) with C. krusei (setting [3]); above 4.01 µg/mL in the test with C. krusei (setting [4]); 2.1 to 4 µg/mL (≈ 3.68 to 7.01 µM) in the test on C. parapsilosis (setting [5]); above 4.01 µg/mL in the test with C. parapsilosis (setting [6]).

Regarding `COc1ccc(F)cc1[C@H](Cn1c(=O)n(C(C)(C)C(=O)O)c(=O)c2c(C)c(-n3nccn3)sc21)OCC(C)(C)C#N` [Compound I-149, 2-[1-[(2R)-2-(2-cyano-2,2-dimethylethoxy)-2-(5-fluoro-2-methoxyphenyl)ethyl]-5-methyl-2,4-dioxo-6-(2H-1,2,3-triazol-2-yl)-1H,2H,3H,4H-thieno[2,3-d]pyrimidin-3-yl]-2-methylpropanoic acid], the IC50 was in the range of 1 to 5 nM on human (hACC2) (Table 2a); 1 to 5 nM at human (hACC2) (Table 2b, additional results); 1 to 5 nM on fungal (fACC2) (Table 2a); 1 to 5 nM at fungal (fACC2) (Table 2b, additional results). Also, the MIC is 2.1 to 4 µg/mL (≈ 3.59 to 6.84 µM) with C. albicans (setting [1]); 1.01 to 2 µg/mL (≈ 1.73 to 3.42 µM) in the test on C. albicans (setting [2]); 2.1 to 4 µg/mL (≈ 3.59 to 6.84 µM) with C. krusei (setting [3]); above 4.01 µg/mL in the test with C. krusei (setting [4]); 2.1 to 4 µg/mL (≈ 3.59 to 6.84 µM) with C. parapsilosis (setting [5]); above 4.01 µg/mL in the test on C. parapsilosis (setting [6]).

For the compound `COc1ccc(F)cc1[C@H](Cn1c(=O)n(C(C)(C)C(N)=O)c(=O)c2c(C)c(-n3nccn3)sc21)OC[C@@H](C)C#N` [Compound I-152], the IC50 against human (hACC2) (Table 2a) lay in the range of 1 to 5 nM; against human (hACC2) (Table 2b, additional results), 1 to 5 nM; on fungal (fACC2) (Table 2a), 0.4 to 1 nM; on fungal (fACC2) (Table 2b, additional results) it was 0.3 to 1 nM. In addition, the MIC in the test on C. albicans (setting [1]) is 2.1 to 4 µg/mL (≈ 3.69 to 7.02 µM); in the test with C. albicans (setting [2]) it was 1.01 to 2 µg/mL (≈ 1.77 to 3.51 µM); in the test on C. krusei (setting [3]) it was 2.1 to 4 µg/mL (≈ 3.69 to 7.02 µM); in the test with C. krusei (setting [4]), 2.01 to 4 µg/mL (≈ 3.53 to 7.02 µM); in the test on C. parapsilosis (setting [5]) it was 2.1 to 4 µg/mL (≈ 3.69 to 7.02 µM); in the test on C. parapsilosis (setting [6]) it was above 4.01 µg/mL.

On to `COc1ccc(F)cc1[C@H](Cn1c(=O)n(C(C)(C)C(N)=O)c(=O)c2c(C)c(-n3nccn3)sc21)OC[C@H](C)C#N` [Compound I-153], for which the IC50 on human (hACC2) (Table 2a) is 1 to 5 nM; on human (hACC2) (Table 2b, additional results) it was 1 to 5 nM; on fungal (fACC2) (Table 2a) it was 0.4 to 1 nM; at fungal (fACC2) (Table 2b, additional results), 0.3 to 1 nM. Moreover, the MIC in the test on C. albicans (setting [1]) is 2.1 to 4 µg/mL (≈ 3.69 to 7.02 µM); in the test with C. albicans (setting [2]), 1.01 to 2 µg/mL (≈ 1.77 to 3.51 µM); in the test on C. krusei (setting [3]) it was 2.1 to 4 µg/mL (≈ 3.69 to 7.02 µM); with C. krusei (setting [4]), 2.01 to 4 µg/mL (≈ 3.53 to 7.02 µM); in the test on C. parapsilosis (setting [5]), 2.1 to 4 µg/mL (≈ 3.69 to 7.02 µM); in the test with C. parapsilosis (setting [6]) it was above 4.01 µg/mL.
